Data set [1] can be described thus: molar heat capacity at constant pressure. As to conditions: 101 kPa, Liquid, DSC.
Data set [2] in a line: molar heat capacity at constant pressure; mn = molality of the nth substance listed, in mol/kg. The note with it: 101 kPa, Liquid, DSC, m2 = 0.

± gives the expanded uncertainty stated by the source.

The values that follow come from the NIST ThermoML archive (doi:10.1016/j.fluid.2016.10.005).

Regarding `CCCCCOCCOCCOCCO` [ethanol, 2-[2-[2-(pentyloxy)ethoxy]ethoxy]-], the “molar heat capacity at constant pressure” value worked out at 471.7 ± 18 J/K/mol in data set [1] (278.15 K); 473.61 ± 18 J/K/mol in data set [1] (283.15 K); 475.62 ± 18 J/K/mol in data set [1] (288.15 K); 477.67 ± 19 J/K/mol in data set [1] (293.15 K); 479.72 ± 19 J/K/mol in data set [1] (298.15 K); 484.23 ± 19 J/K/mol in data set [1] (308.15 K). The “molar heat capacity at constant pressure” value in data set [1] (318.15 K) came to 489.08 ± 19 J/K/mol; in data set [1] (328.15 K), 494.37 ± 19 J/K/mol; in data set [1] (333.15 K) it was 497.05 ± 19 J/K/mol.

In the case of `O` [water] + CCCCCOCCOCCOCCO, the “molar heat capacity at constant pressure” value is on record as 75.75 ± 2.9 J/K/mol in data set [2] (278.15 K); 75.58 ± 2.9 J/K/mol in data set [2] (283.15 K); 75.47 ± 2.9 J/K/mol in data set [2] (288.15 K); 75.39 ± 2.9 J/K/mol in data set [2] (293.15 K); 75.35 ± 2.9 J/K/mol in data set [2] (298.15 K); 75.32 ± 2.9 J/K/mol in data set [2] (308.15 K). The “molar heat capacity at constant pressure” value was 75.34 ± 2.9 J/K/mol in data set [2] (318.15 K), 75.4 ± 2.9 J/K/mol in data set [2] (328.15 K) and 75.48 ± 2.9 J/K/mol in data set [2] (333.15 K).

`O` [water]: the “molar heat capacity at constant pressure” value in data set [1] (278.15 K) is 75.75 ± 2.9 J/K/mol; in data set [1] (283.15 K) it was 75.58 ± 2.9 J/K/mol; in data set [1] (288.15 K) it was 75.47 ± 2.9 J/K/mol; in data set [1] (293.15 K) it was 75.39 ± 2.9 J/K/mol; in data set [1] (298.15 K), 75.35 ± 2.9 J/K/mol; in data set [1] (308.15 K), 75.32 ± 2.9 J/K/mol. Moreover, the entries for the “molar heat capacity at constant pressure” value in data set [1] (318.15 K), in data set [1] (328.15 K) and in data set [1] (333.15 K) were 75.34 ± 2.9 J/K/mol, 75.4 ± 2.9 J/K/mol and 75.48 ± 2.9 J/K/mol, respectively.
